Laboratory results published in US20150105252A1, “SUBSTITUTED PYRAZOLES AS HERBICIDES” (E I DU PONT DE NEMOURS AND COMPANY, priority 2013, published 2015).

Key:
johnsongrass = experiment: Test C preemergence; format: in vivo, Sorghum halepense; details: preemergence; for Plant response rating, Johnsongrass: 125 g ai/ha, scale 0 to 100, 0 = no effect, 100 = complete control
Summary of the method: (§1)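 Seeds sown in loam–sand blend and treated preemergence with test chemicals in non-phytotoxic solvent with surfactant; postemergence plants in peat-based medium, treated at 2–18 cm (1- to 4-leaf stage). Greenhouse 13 to 15 days, then visual rating versus controls, 0 (no effect) to 100 (complete control).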

foxtail, giant [1] = experiment: Test C preemergence; format: in vivo, Setaria faberii; details: preemergence; for Plant response rating, Foxtail, Giant: 125 g ai/ha, scale 0 to 100, 0 = no effect, 100 = complete control
Summary of the method: as §1

morningglory = experiment: Test A preemergence; format: in vivo, Ipomoea spp.; details: preemergence
Summary of the method: (§2)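 Growth medium: loam soil blended with sand. Preemergence treatment used a directed soil spray right after planting; postemergence treatment targeted seedlings at one to two leaves (2–10 cm height). Response was judged by eye relative to untreated plants about 10 days later on a 0–100 control scale.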

foxtail, giant [2] = experiment: Test A preemergence; format: in vivo, Setaria faberii; details: preemergence
Summary of the method: as §2

corn = experiment: Test C preemergence; format: in vivo, Zea mays; details: preemergence; for Plant response rating, Corn: 125 g ai/ha, scale 0 to 100, 0 = no effect, 100 = complete control
Summary of the method: as §1

oilseed rape = experiment: Test C preemergence; format: in vivo, Brassica napus; details: preemergence; for Plant response rating, Oilseed Rape: 125 g ai/ha, scale 0 to 100, 0 = no effect, 100 = complete control
Summary of the method: as §1

crabgrass, large = experiment: Test C preemergence; format: in vivo, Digitaria sanguinalis; details: preemergence; for Plant response rating, Crabgrass, Large: 125 g ai/ha, scale 0 to 100, 0 = no effect, 100 = complete control
Summary of the method: as §1

ryegrass, Italian = experiment: Test C preemergence; format: in vivo, Lolium multiflorum; details: preemergence; for Plant response rating, Ryegrass, Italian: 125 g ai/ha, scale 0 to 100, 0 = no effect, 100 = complete control
Summary of the method: as §1

barnyardgrass [3] = experiment: Test A preemergence; format: in vivo, Echinochloa crus-galli; details: preemergence
Summary of the method: as §2

velvetleaf [4] = experiment: Test A preemergence; format: in vivo, Abutilon theophrasti; details: preemergence
Summary of the method: as §2

barnyardgrass [5] = experiment: Test C preemergence; format: in vivo, Echinochloa crus-galli; details: preemergence; for Plant response rating, Barnyardgrass: 125 g ai/ha, scale 0 to 100, 0 = no effect, 100 = complete control
Summary of the method: as §1

velvetleaf [6] = experiment: Test A postemergence; format: in vivo, Abutilon theophrasti
Summary of the method: as §2

barnyardgrass [7] = experiment: Test B flood; format: in vivo, Echinochloa crus-galli; details: 250 g ai/ha, visual rating on 0 to 100 scale (0 no effect, 100 complete control), 13 to 15 days
Summary of the method: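 Response scored visually, 0–100 relative to controls, 13–15 days after the compound was applied into paddy water; plants were at the 2-leaf stage in pots kept flooded to 3 cm.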

ragweed = experiment: Test C preemergence; format: in vivo, Ambrosia elation; details: preemergence; for Plant response rating, Ragweed: 125 g ai/ha, scale 0 to 100, 0 = no effect, 100 = complete control
Summary of the method: as §1

[8] = 31 g ai/ha, visual rating, scale 0 to 100 (0 no effect, 100 complete control), 13 to 15 days
[9] = 62 g ai/ha, scale 0 to 100 (0 no effect, 100 complete control), 13 to 15 days
[10] = 250 g ai/ha, scale 0 to 100, 0 is no effect, 100 is complete control
[11] = 125 g ai/ha, visual injury, 0 to 100 scale, approx. 10 days
[12] = 500 g ai/ha, visual injury after approx. 10 days, 0 to 100 scale (0 no effect, 100 complete control)
[13] = Postemergence, 500 g ai/ha, 0 to 100 scale (0 no effect, 100 complete control)
[14] = postemergence, 125 g ai/ha, about 10 days, visual rating on 0 to 100 scale (0 no effect, 100 complete control)

CCc1cc(C(=O)NC(C)C)nn1Cc1ccnc(C(F)(F)F)c1 [Compound 139]
Johnsongrass plant response rating (johnsongrass; [8]): 10 | Johnsongrass plant response rating (johnsongrass; [9]): 70 | Plant response rating, Johnsongrass (johnsongrass; 13 to 15 days): 85 | Johnsongrass plant response rating (johnsongrass; [10]): 98 | Foxtail, Giant plant response rating (foxtail, giant [1]; [8]): 90 | Foxtail, Giant plant response rating (foxtail, giant [1]; [9]): 100 | Plant response rating, Foxtail, Giant (foxtail, giant [1]; 13 to 15 days): 100 | Foxtail, Giant plant response rating (foxtail, giant [1]; [10]): 100 | Morningglory plant response rating (morningglory; [11]): 40 | Morningglory plant response rating (morningglory; [12]): 100 | Foxtail, Giant plant response rating (foxtail, giant [2]; [11]): 100 | Foxtail, Giant plant response rating (foxtail, giant [2]; [12]): 100 | Corn plant response rating (corn; [8]): 25 | Corn plant response rating (corn; [9]): 30 | Plant response rating, Corn (corn; 13 to 15 days): 85 | Corn plant response rating (corn; [10]): 80 | Oilseed Rape plant response rating (oilseed rape; [8]): 50 | Oilseed Rape plant response rating (oilseed rape; [9]): 100 | Plant response rating, Oilseed Rape (oilseed rape; 13 to 15 days): 100 | Oilseed Rape plant response rating (oilseed rape; [10]): 100 | Crabgrass, Large plant response rating (crabgrass, large; [8]): 100 | Crabgrass, Large plant response rating (crabgrass, large; [9]): 100 | Plant response rating, Crabgrass, Large (crabgrass, large; 13 to 15 days): 100 | Crabgrass, Large plant response rating (crabgrass, large; [10]): 100 | Ryegrass, Italian plant response rating (ryegrass, Italian; [8]): 10 | Ryegrass, Italian plant response rating (ryegrass, Italian; [9]): 60 | Plant response rating, Ryegrass, Italian (ryegrass, Italian; 13 to 15 days): 90 | Ryegrass, Italian plant response rating (ryegrass, Italian; [10]): 90 | Barnyardgrass plant response rating (barnyardgrass [3]; [11]): 90 | Barnyardgrass plant response rating (barnyardgrass [3]; [12]): 100 | Velvetleaf plant response rating (velvetleaf [4]; [11]): 30 | Velvetleaf plant response rating (velvetleaf [4]; [12]): 100 | Barnyardgrass plant response rating (barnyardgrass [5]; 31 g ai/ha, scale 0 to 100 (0 no effect, 100 complete control), 13 to 15 days): 40 | Barnyardgrass plant response rating (barnyardgrass [5]; [9]): 98 | Plant response rating, Barnyardgrass (barnyardgrass [5]; 13 to 15 days): 100 | Barnyardgrass plant response rating (barnyardgrass [5]; [10]): 100 | Velvetleaf plant response rating (velvetleaf [6]; [13]): 90 | Velvetleaf plant response rating (velvetleaf [6]; [14]): 40 | Plant response rating, Barnyardgrass (barnyardgrass [7]): 60 | Ragweed plant response rating (ragweed; [8]): 15 | Ragweed plant response rating (ragweed; [9]): 75 | Plant response rating, Ragweed (ragweed; 13 to 15 days): 90 | Ragweed plant response rating (ragweed; [10]): 95

O=C(NCC(F)(F)F)c1cc(CCCl)n(Cc2ccnc(C(F)(F)F)c2)n1 [Compound 143]
Johnsongrass plant response rating (johnsongrass; [8]): 70 | Johnsongrass plant response rating (johnsongrass; [9]): 85 | Plant response rating, Johnsongrass (johnsongrass; 13 to 15 days): 95 | Johnsongrass plant response rating (johnsongrass; [10]): 95 | Foxtail, Giant plant response rating (foxtail, giant [1]; [8]): 100 | Foxtail, Giant plant response rating (foxtail, giant [1]; [9]): 100 | Plant response rating, Foxtail, Giant (foxtail, giant [1]; 13 to 15 days): 100 | Foxtail, Giant plant response rating (foxtail, giant [1]; [10]): 100 | Morningglory plant response rating (morningglory; [11]): 100 | Morningglory plant response rating (morningglory; [12]): 100 | Foxtail, Giant plant response rating (foxtail, giant [2]; [11]): 100 | Foxtail, Giant plant response rating (foxtail, giant [2]; [12]): 100 | Corn plant response rating (corn; [8]): 40 | Corn plant response rating (corn; [9]): 75 | Plant response rating, Corn (corn; 13 to 15 days): 90 | Corn plant response rating (corn; [10]): 95 | Oilseed Rape plant response rating (oilseed rape; [8]): 100 | Oilseed Rape plant response rating (oilseed rape; [9]): 100 | Plant response rating, Oilseed Rape (oilseed rape; 13 to 15 days): 95 | Oilseed Rape plant response rating (oilseed rape; [10]): 100 | Crabgrass, Large plant response rating (crabgrass, large; [8]): 100 | Crabgrass, Large plant response rating (crabgrass, large; [9]): 100 | Plant response rating, Crabgrass, Large (crabgrass, large; 13 to 15 days): 100 | Crabgrass, Large plant response rating (crabgrass, large; [10]): 100 | Ryegrass, Italian plant response rating (ryegrass, Italian; [8]): 35 | Ryegrass, Italian plant response rating (ryegrass, Italian; [9]): 80 | Plant response rating, Ryegrass, Italian (ryegrass, Italian; 13 to 15 days): 90 | Ryegrass, Italian plant response rating (ryegrass, Italian; [10]): 90 | Barnyardgrass plant response rating (barnyardgrass [3]; [11]): 90 | Barnyardgrass plant response rating (barnyardgrass [3]; [12]): 100 | Velvetleaf plant response rating (velvetleaf [4]; [11]): 50 | Velvetleaf plant response rating (velvetleaf [4]; [12]): 100 | Barnyardgrass plant response rating (barnyardgrass [5]; [8]): 75 | Barnyardgrass plant response rating (barnyardgrass [5]; [9]): 100 | Plant response rating, Barnyardgrass (barnyardgrass [5]; 13 to 15 days): 100 | Barnyardgrass plant response rating (barnyardgrass [5]; [10]): 100 | Velvetleaf plant response rating (velvetleaf [6]; [13]): 90 | Velvetleaf plant response rating (velvetleaf [6]; [14]): 80 | Plant response rating, Barnyardgrass (barnyardgrass [7]): 45 | Ragweed plant response rating (ragweed; [8]): 98 | Ragweed plant response rating (ragweed; [9]): 98 | Plant response rating, Ragweed (ragweed; 13 to 15 days): 95 | Ragweed plant response rating (ragweed; [10]): 100
